Source: US11077167B2, “Agent for promoting skeletal muscle injury repair” (Osaka University, priority 2017, dated 2021)

What was measured:
[1] = system: muscle injury model rats (incised masseter muscles on both sides); assay: Histological staining of masseter muscles at postoperative week 1, Example 1; assay type: in vivo, Jcl:SD rats; conditions: P<0.05, t-test
Procedure: (§1) Incisions were made in masseter muscles on both sides in Jcl:SD rats (10 weeks old). Immediately after muscle incision, 1 mL each of the SV peptide (20 ng/mL) was intramuscularly administered into several sites surrounding the cut surfaces. The incision on each side was made along a straight line connecting the lateral angle of the eye and the mandibular angle, extending in depth from the fascia on the skin side to the lateral periosteum on the mandibular ramus. The cut surfaces were subjected to electrocoagulation with an electric scalpel for the arrest of bleeding (see FIG. 1).
This experiment was performed on rats subjected to incision of masseter muscles on both sides and subsequent administration of the SV peptide into the incised left masseter muscle without administration into the incised right masseter muscle (control). Each rat was euthanized at postoperative week 1, and the masseter muscles on both sides were excised. Histological sections were prepared by the usual method and subjected to various types of staining. The number of immature muscle fibers with central nuclei, which were muscle fibers involved in muscle repair, and the number of blood vessels were counted on HE-staining specimens. The masseter muscle was divided into upper and lower halves in the coronal plane, and 2 slices each of the upper and lower halves were used for counting. Counting was performed in 5 fields of view in each slice. The area of granulation tissue formed on the cut surfaces was measured on sirius red-staining specimens (type I and type III collagens were stained) using an image-analysis software. The sections were immunostained for myogenin, a marker for myotube cells, and the number of myogenin-positive cells was counted using an image-analysis software.

[2] = system: muscle injury model rats (incised masseter muscles on both sides); assay: Behavioral physiological experiment (feeding efficiency), Example 2; assay type: in vivo, Jcl:SD rats
Procedure: as §1, with “old) under anesthesia in the same manner as in Example 1.” for “old).”, “ng/mL) or 1 mL each of PBS” for “ng/mL)”, “1). […]” for “1).”
In the same manner as in Example 1, each rat was housed in a transparent plastic cage of 30 cm in length×30 cm in width×30 cm in height at postoperative weeks 1, 2, 4, 6, and 8, and the behavior was recorded on video cameras during the active time of rats (18:00 to 22:00). Food intake and mastication time were measured, and the food intake per unit of mastication time (feeding efficiency) was calculated.

[3] = system: muscle injury model rats (incised masseter muscles on both sides); assay: Histological staining of masseter muscles at postoperative week 8, Example 2; assay type: in vivo, Jcl:SD rats; conditions: sirius red staining
Procedure: as §1, with “old) under anesthesia in the same manner as in Example 1.” for “old).”, “ng/mL) or 1 mL each of PBS” for “ng/mL)”, “1). […]” for “1).”
Each rat was euthanized at postoperative week 8, and the masseter muscles on both sides were excised. […] Histological characteristics of regenerated muscle fibers at the muscle injury site were assessed on the HE-stained sections. The amount of muscle fibers formed and the diameter of the muscle fibers in the tissue were measured on the sirius red-staining sections.

[4] = system: Human skeletal muscle satellite cells (HskMSCs); assay: Chemotactic capacity (Chemotaxicell membrane); assay type: cell-based; conditions: SV peptide 20 ng/mL as chemoattractant; 12 hours; vs PBS or random SV
Procedure: Human skeletal muscle satellite cells (HskMSCs) were purchased from ScienCell Research Laboratories and used. The medium used for HskMSC culture was the supplier's recommended medium (Skeletal Muscle Cell Medium containing 5% FBS, Skeletal Muscle Cell Growth Supplement, and penicillin/streptomycin solution).
(§2) A polycarbonate membrane with a pore size of 8 μm (Chemotaxicell: Kurabo Industries LTD.) was immersed in a 10 μg/mL fibronectin solution at room temperature for 30 minutes for coating the membrane. A medium containing the SV peptide (20 ng/mL, SV group), the random SV (20 ng/mL, random SV group), or PBS (PBS group) as a chemoattractant was added to a lower chamber. On an upper chamber, human skeletal muscle satellite cells and human skeletal muscle myoblasts were separately seeded at 2.0×10^4 cells/mL in DMEM containing 0.1% BSA. A pair of chambers was incubated at 37° C. for 12 hours. The cells on the upper surface of the membrane were removed with a swab, and the membrane was fixed with a 10% neutral buffered formalin solution (Wako Pure Chemical Industries, Ltd.) and stained with hematoxylin. The number of cells migrated to the lower surface of the membrane was measured under an optical microscope.

[5] = system: Human skeletal muscle myoblasts (HSMMs); assay: Chemotactic capacity (Chemotaxicell membrane); assay type: cell-based; conditions: SV peptide 20 ng/mL as chemoattractant; 12 hours; vs PBS or random SV
Procedure: (§3) Human skeletal muscle myoblasts (HSMMs) were purchased from Lonza and used. The medium used for HSMM culture was the supplier's recommended medium (Skeletal Muscle Growth Media-2 supplemented with SingleQuots Kit).
as §2

[6] = system: Human skeletal muscle myoblasts (HSMMs); assay: Cell migratory capacity (cell-denuded area); assay type: cell-based; conditions: SV peptide 20 ng/mL
Procedure: as §3
Human skeletal muscle satellite cells and human skeletal muscle myoblasts were separately cultured on 60-mm (diameter) dishes (Iwaki) to 100% confluency. From each dish, a 2-mm-wide strip of cells were removed, and the medium was replaced with a medium containing the SV peptide (20 ng/mL, SV group), the random SV (20 ng/mL, random SV group), or PBS (PBS group). Thereafter, culture was continued. Images were taken with a digital camera mounted on a phase-contrast microscope every 12 hours. The cell-denuded area was measured using the image-analysis software ImageJ (NIH, USA). The cell migration percentage was determined by calculating the percentage of reduction in the cell-denuded area relative to the value immediately after cell removal.

SVVYGLR [SV peptide]
number of muscle fibers with central nuclei ([1]; HE staining, SV peptide side vs control side): significantly larger on the SV peptide side than that on the control side
number of blood vessels per field of view ([1]; HE staining, SV peptide side vs non-administration control side): significantly larger on the SV peptide side than that on the control side
number of myogenin-positive nuclei per field of view ([1]; myogenin immunostaining, SV peptide side vs control side): significantly larger on the SV peptide side than that on the control side
area of granulation tissue formed on cut surfaces ([1]; sirius red staining, SV peptide side vs control side): significantly smaller on the SV peptide side than that on the control side
feeding efficiency (food intake per unit of mastication time) ([2]; postoperative week 8, SV group vs PBS group): significantly higher value than that in the PBS group
feeding efficiency (food intake per unit of mastication time) ([2]; time course postoperative weeks 1, 2, 4, 6, 8, relative to week 1 value = 1): time-dependent improvement in feeding efficiency
amount of scar formation (area of scar tissue formed on the cut surfaces) ([3]; SV peptide administration side vs PBS administration side): remarkably reduced from that on the PBS administration side in the PBS group
diameter of the muscle fibers ([3]; SV side vs control side in SV group): significantly larger than that on the control side in the same group
chemotactic capacity (number of cells migrated to lower surface of membrane) [4]: tended to have a higher chemotactic capacity than that of the counterpart in the PBS group or the random SV group, but there was no significant intergroup difference
chemotactic capacity (number of cells migrated to lower surface of membrane) [5]: significantly higher chemotactic capacity than that of the counterpart in the PBS group or the random SV group
cell migratory capacity (cell migration percentage) ([6]; 36 and 48 hours after cell removal): significantly different from that in the PBS group or the random SV group
cell migratory capacity (cell migration percentage) ([6]; 24 hours after cell removal and thereafter): higher than that in the PBS group or the random SV group
